From patent publication US5948803A, “N-substituted dioxothiazolidylbenzamide derivatives and process for producing the same” (Kyorin Pharmaceutical Co., Ltd., priority 1995, dated 1999)

Tests used:
[1] = system: inherited obese mice (C57BL ob/ob); assay: Blood sugar-lowering effect in glucose tolerance test, inherited obese mice (C57BL ob/ob); type: in vivo, mouse (C57BL ob/ob); conditions: 10 mg/kg oral, 5 days; glucose 2 g/kg orally after overnight fasting; blood sugar at 0, 30 and 60 minutes
Procedure: Employing inherited obese mice (C57BL ob/ob), prior to test, the blood sugar level was determined by collecting blood from caudal vein. The mice were grouped so as not to cause any difference in the blood sugar level, and the compounds of Example 16, 17 and 29 were administered orally for 5 days at a dosage of 10 mg/kg. For the glucose tolerance test, 2 g/kg of glucose were administered orally after fasting overnight and the blood sugar levels at 0 minute, 30 minutes and 60 minutes were determined. The blood sugar-lowering rate was calculated from following formula. [formula]

[2] = system: inherited obese mice (C57BL ob/ob); assay: Triglyceride-lowering effect in blood, inherited obese mice (C57BL ob/ob); type: in vivo, mouse (C57BL ob/ob); conditions: 2 weeks
Procedure: Employing inherited obese mice (C57BL ob/ob), the compound of Example 16 was administered orally for 2 weeks at following dosages, and thereafter the triglyceride level in blood was determined. The triglyceride-lowering rate in blood was calculated from following formula. [formula]

aldose reductase = target: T1, aldose reductase (Rattus norvegicus, UniProt P07943); assay: In-vitro inhibitory effect against aldose reductase extracted from rat lens (method of Hayman and Kinoshita); type: biochemical
T1 construct: aldose reductase extracted from rat lens; from tissue; host or cells: rat lens
From the text: Against aldose reductase extracted from rat lens, the in-vitro inhibitory effect of the compound of Example 16 was investigated by the method of Hayman and Kinoshita (Journal of Biological Chemistry, vol. 240, p. 877 (1965)).

`COc1ccc(C2SC(=O)NC2=O)cc1C(=O)NCc1cccc(C(F)(F)F)c1` (stereo not drawn) [Example 17] gave a Blood sugar-depressing rate [1] of 42%.

In the case of `COc1ccc(C2SC(=O)NC2=O)cc1C(=O)NCc1ccc(C(F)(F)F)cc1` (stereo not drawn) [Example 16, N-(4-trifluoromethylbenzyl)-5-(2,4-dioxothiazolidin-5-yl)-2-methoxybenzamid], the “In-blood triglyceride depressing rate” value ([2]; 3 mg/kg oral) is reported as 51%, the “In-blood triglyceride depressing rate” value ([2]; 10 mg/kg oral) is reported as 70% and the IC50 (aldose reductase) is reported as 23 nM. It also gave a Blood sugar-depressing rate [1] of 48%.

`O=C1NC(=O)C(c2ccc(F)c(C(=O)NCc3ccc(C(F)(F)F)cc3)c2)S1` (stereo not drawn) [Example 29] was tested, and the Blood sugar-depressing rate [1] was 30%.
